Where two headings read alike, the source gives them in different places.
Columns and labels:
[1] = tested on: T47D human breast cancer cells; test: T47D Human Breast Cancer Cells Assay (alkaline phosphatase, luminescence); type: cell-based
Method: T47D Human Breast Cancer Cells Assay
T47D human breast cancer cells were grown in RPMI medium without phenol red (Invitrogen) containing 10% (v/v) heat-inactivated fetal bovine serum (FBS; Hyclone), 1% (v/v) penicillin-streptomycin (Invitrogen), 1% (w/v) glutamine (Invitrogen), and […] insulin (Sigma). Incubation conditions were 37° C. in a humidified 5% (v/v) carbon dioxide environment.
The cells were plated in 96-well tissue culture plates at 10,000 cells per well in assay medium [RPMI medium without phenol red (Invitrogen) containing 5% (v/v) charcoal-treated FBS (Hyclone) and 1% (v/v) penicillin-streptomycin (Invitrogen)]. Two days later, the medium was decanted and test compound or control were added at a final concentration of 0.1% (v/v) dimethyl sulfoxide in fresh assay medium. Twenty-four hours later, an alkaline phosphatase assay was performed using a SEAP kit (BD Biosciences Clontech, Palo Alto, Calif.). Briefly, the medium was decanted and the cells were fixed for 30 minutes at room temperature with 5% (v/v) formalin (Sigma). The cells were washed once with room temperature Hank's buffered saline solution (Invitrogen). Equal volumes (0.05 mL) of 1× Dilution Buffer, Assay Buffer and 1:20 substrate/enhancer mixture were then added. After 1 hour incubation at room temperature in the dark, the lysate was transferred to a white 96-well plate (Dynex) and luminescence was read using a LuminoSkan Ascent (Thermo Electron, Woburn, Mass.).
(§1) Representative compounds of the present invention were tested according to the procedures described in Examples 45 and 46 above, with results as listed in Table 2 below.

[2] = tested on: A549 Human lung carcinoma cells; test: A549 Human Lung Cell Assay (transfected cells, dexamethasone challenge, luciferase read-out); type: cell-based; conditions: test compound 10 min then dexamethasone challenge, 24 h, Luc-assay, read-out: A 549 IC50
Method: A549Human Lung Cell Assay
A549Human lung carcinoma cells were grown in F-12K Nutrient Mixture containing 10% (v/v) fetal bovine serum (FBS; Invitrogen), 2 mM glutamine and 0.15% sodium dicarbonate (Invitrogen).
A549 cells were split 1 to 3 in 175 cm tissue culture flask. The cells were incubated at 37° C. in CO2 incubator until the cells were 95% confluent (typically 24-30 hours).
The following solutions were prepared in sterile tubes: (a) Solution A 1.5 μg/ml of DNA in 8.5 ml OPTI-MEM I Reduced Serum Medium. (GIBCO cat# 31985) and (b) Solution B: 6 μl/ml of DMRIE-C Reagent into […] OPTI-MEM I. The two solutions were combined and mixed gently, then incubated at room temperature for 40 minutes.
The A549 cells prepared above were washed with […] of OPTI-MEM I. The medium was removed and 17 ml of the lipid-DNA complex solution was overlayed onto cells. The cells ere then incubated for 16 h at 37° C. in CO2 incubator. The DNA-containing medium was removed and 30 ml of growth medium was added. (5% Charcoal treated FBS) After 5-6 h, the cells were seeded in a 96 well plate and the cells incubated overnight at 37° C. in CO2 incubator.
To each well was then added 5 μl of test compounds and the cells incubated at 37° C. for 10 min. 5 μL of dexamathasone (CAS [50-02-2]), was then added to each well for challenger and the cells incubated at 37° C. in CO2 incubator for 24 h. 100 μl of Luc-assay buffer was then added into each cell well and the cells incubated for 30 min at room temperature. A 150 μL sample from each well was then transferred into a DYNEX Microlitel plate and read on Top-counter.
as §1

[3] = read-out: T47D IC50, T47D cells, 24 h with test compound, alkaline phosphatase assay (SEAP kit)
[4] = Homo sapiens, T47D, 24 h, read-out: T47D IC50 (nM), T47D cells, 24 h with test compound, alkaline phosphatase assay (SEAP kit)

Structure (SMILES)	IC50 [1, 3] [nM]	IC50 ([2]; A549 cells) [nM]	IC50 [1, 4] [nM]	IC50 ([2]; Homo sapiens, A549, A549 cells) [nM]	IC50 ([1]; T47D cells, 24 h with test compound, alkaline phosphatase assay (SEAP kit), read-out: T47D IC50) [nM]
COc1ccc([C@H]2OC[C@@]3(C)C(CC[C@@]3(O)C#Cc3ccccc3)C3CCC4=CC(=O)CCC4=C32)cc1 (stereo in doubt) [Compound 23, 1-Hydroxy-10-(4-methoxy-phenyl)-12a-methyl-1-phenylethynyl-2,3,3a,3b,4,5,9,10,12,12a-decahydro-1H,8H-11-oxa-naphtho[2,1-e]azulen-7-one]	260	237			
C=C(C)[C@]1(O)CCC2C3CCC4=CC(=O)CCC4=C3[C@@H](c3ccc(N(C)C)cc3)OC[C@@]21C (stereo partly shown) [Compound 1, 10-(4-Dimethylamino-phenyl)-1-hydroxy-1-isopropenyl-12a methyl-2,3,3a,3b,4,5,9,10,12,12a-decahydro-1H,8H-11-oxa-naphtho[2,1 e]azulen-7-one]			0.4	50.1	
C=C(C)[C@]1(O)CCC2C3CCC4=CC(=O)CCC4=C3[C@@H](c3ccc(SC)cc3)OC[C@@]21C (stereo partly shown) [Compound 2, 1-Hydroxy-1-isopropenyl-12a-methyl-10-(4-methylsulfanyl-phenyl)-2,3,3a,3b,4,5,9,10,12,12a-decahydro-1H,8H-11-oxa-naphtho[2,1-e]azulen-7-one]			5.12	58.2	
CSc1ccc(C2OCC3(C)C(CCC3(O)C(F)(F)C(F)(F)F)C3CCC4=CC(=O)CCC4=C23)cc1 (stereo not shown) [Compound 4, 1-Hydroxy-12a-methyl-10-(4-methylsulfanyl-phenyl)-1-pentafluoroethyl-2,3,3a,3b4,5,9,10,12,12a-decahydro-1H,8H-11-oxa-naphtho[2,1-e]azulen-7-one]		68.7			33.2
CSc1ccc([C@H]2OC[C@@]3(C)C(CC[C@@]3(O)C(F)(F)C(F)(F)F)C3CCC4=CC(=O)CCC4=C32)cc1 (stereo partly shown) [Compound 5]			54	7.06	
COc1ccc([C@H]2OC[C@@]3(C)C(CC[C@@]3(O)C#Cc3ccc(C(F)(F)F)cc3)C3CCC4=CC(=O)CCC4=C32)cc1 (stereo partly shown) [Compound 6, 1-Hydroxy-10-(4-methoxy-phenyl)-12a-methyl-1-(4-trifluoromethyl-phenylethynyl)-2,3,3a,3b,4,5,9,10,12,12a-decahydro-1H,8H-11-oxa-naphtho[2,1-e]azulen-7-one]	83	109			
CC#C[C@]1(O)CCC2C3CCC4=CC(=O)CCC4=C3[C@@H](c3ccc(N(C)C)cc3)OC[C@@]21C (stereo partly shown) [Compound 7, 10-(4-Dimethylamino-phenyl)-1-hydroxy-12a-methyl-1-prop-1-ynyl-2,3,3a,3b,4,5,9,10,12,12a-decahydro-1H,8H-11-oxa-naphtho[2,1-e]azulen-7-one]			116	16.2	
COc1ccc([C@H]2OC[C@@]3(C)C(CC[C@@]3(O)C#Cc3ccc(C(C)(C)C)cc3)C3CCC4=CC(=O)CCC4=C32)cc1 (stereo partly shown) [Compound 9, 1-(4-tert-Butyl-phenylethynyl)-1-hydroxy-10-(4-methoxy-phenyl)-12a-methyl-2,3,3a,3b,4,5,9,10,12,12a-decahydro-1H,8H-11-oxa-naphtho[2,1-e]azulen-7-one]			264	626	
CN(C)c1ccc([C@H]2OC[C@]3(C)C(=O)CCC3C3CCC4=CC(=O)CCC4=C32)cc1 (stereo partly shown) [Compound 10, 10-(4-Dimethylamino-phenyl)-12a-methyl-2,3,3a,3b,4,5,9,10,12,12a-decahydro-8H-11-oxa-naphtho[2,1-e]azulene-1,7-dione]			1800	> 3000	
CSc1ccc([C@H]2OC[C@]3(C)C(C#Cc4ccccc4)=CCC3C3CCC4=CC(=O)CCC4=C32)cc1 (stereo partly shown) [Compound 11, 12a-Methyl-10-(4-methylsulfanyl-phenyl)-1-phenylethynyl 3a,3b,4,5,9,10,12,12a-octahydro-3H,8H-11-oxa-naphtho[2,1-e]azulen-7-one]			> 1000	> 3000	
C#C[C@]1(O)CCC2C3CCC4=CC(=O)CCC4=C3[C@@H](c3ccc(OC)cc3)OC[C@@]21C (stereo partly shown) [Compound 12, 1-Ethynyl-1-hydroxy-10-(4-methoxy-phenyl)-12a-methyl-2,3,3a,3b,4,5,9,10,12,12a-decahydro-1H,8H-11-oxa-naphtho[2,1-e]azulen-7-one]			> 1000	118	
C#C[C@]1(O)CCC2C3CCC4=CC(=O)CCC4=C3[C@H](c3ccc(OC)cc3)OC[C@@]21C (stereo partly shown) [Compound 13, 1-Ethynyl-1-hydroxy-10-(4-methoxy-phenyl)-12a-methyl 2,3,3a,3b,4,5,9,10,12,12a-decahydro-1H,8H-11-oxa-naphtho[2,1-e]azulen-7-one]			> 1000	367	
CC#C[C@]1(O)CCC2C3CCC4=CC(=O)CCC4=C3[C@@H](c3ccc(OC)cc3)OC[C@@]21C (stereo partly shown) [Compound 14, 1-Hydroxy-10-(4-methoxy-phenyl)-12a-methyl-1-prop-1-ynyl-2,3,3a,3b,4,5,9,10,12,12a-decahydro-1H,8H-11-oxa-naphtho[2,1-e]azulen-7-one]			> 1000	46	
CC#C[C@]1(O)CCC2C3CCC4=CC(=O)CCC4=C3[C@H](c3ccc(OC)cc3)OC[C@@]21C (stereo partly drawn) [Compound 15, 1-Hydroxy-10-α(4-methoxy-phenyl)-12a-methyl-1-prop-1-ynyl-2,3,3a,3b,4,5,9,10,12,12a-decahydro-1H,8H-11-oxa-naphtho[2,1-e]azulen-7-one]			> 1000	583	
COc1ccc([C@H]2OC[C@@]3(C)C(CC[C@@]3(O)C#Cc3ccccc3)C3CCC4=CC(=O)CCC4=C32)cc1 (stereo partly shown) [Compound 16, 1-Hydroxy-10-(4-methoxy-phenyl)-12a-methyl-1-phenylethynyl-2,3,3a,3b,4,5,9,10,12,12a-decahydro-1H,8H-11-oxa-naphtho[2,1-e]azulen-7-one]	> 1000	> 3000			
C=CC[C@]1(O)CCC2C3CCC4=CC(=O)CCC4=C3[C@@H](c3ccc(OC)cc3)OC[C@@]21C (stereo partly shown) [Compound 17, 1-Allyl-1-hydroxy-10-(4-methoxy-phenyl)-12a-methyl 2,3,3a,3b,4,5,9,10,12,12a-decahydro-1H,8H-11-oxa-naphtho[2,1-e]azulen-7-one]			> 1000	114	
C=CC[C@]1(O)CCC2C3CCC4=CC(=O)CCC4=C3[C@H](c3ccc(OC)cc3)OC[C@@]21C (stereo partly drawn) [Compound 18, 1-Allyl-1-hydroxy-10α-(4-methoxy-phenyl)-12a-methyl 2,3,3a,3b,4,5,9,10,12,12a-decahydro-1H,8H-11-oxa-naphtho[2,1-e]azulen-7-one]			> 1000	> 3000	
COc1ccc([C@H]2OC[C@@]3(C)C(CC[C@@]3(O)C#CC(F)(F)F)C3CCC4=CC(=O)CCC4=C32)cc1 (stereo partly shown) [Compound 19, 1-Hydroxy-10-(4-methoxy-phenyl)-12a-methyl-1-trifluoroprop-1-ynyl-2,3,3a,3b,4,5,9,10,12,12a-decahydro-1H,8H-11-oxa-naphtho[2,1-e]azulen-7-one]			> 1000	> 3000	
COc1ccc([C@@H]2OC[C@@]3(C)C(CC[C@@]3(O)C#CC(F)(F)F)C3CCC4=CC(=O)CCC4=C32)cc1 (stereo partly shown) [Compound 20, 1-Hydroxy-10-[…]-(4-methoxy-phenyl)-12a-methyl-1-trifluoroprop-1-ynyl-2,3,3a,3b,4,5,9,10,12,12a-decahydro-1H,8H-11-oxa-naphtho[2,1-e]azulen-7-one]			> 1000	> 3000	
COc1ccc([C@H]2OC[C@@]3(C)C(CC[C@@]3(O)C#Cc3ccc(C(F)(F)F)cc3)C3CCC4=CC(=O)CCC4=C32)cc1 (stereo partly shown) [Compound 21, 1-Hydroxy-10-(4-methoxy-phenyl)-12a-methyl-1-(4-trifluoromethylphenylethynyl)-2,3,3a,3b,4,5,9,10,12,12a-decahydro-1H,8H-11-oxa-naphtho[2,1-e]azulen-7-one]	> 1000	> 1000			

From patent US7390831B2, “Tetracyclic steroid derivatives useful as progesterone receptor modulators” (Janssen Pharmaceutica N.V., priority 2006, dated 2008)
